# Reference: patent US8460644B2, “Synergistic mixed poloxamer systems for the solubilisation of drugs” (IS Pharmaceuticals Limited, priority 2001, dated 2013)
# Like-named read-outs stand apart in the source and are kept apart here.
# Key:
# [1] = cited from earlier work
# [2] = Maximum additive concentration (MAC) and degree of synergistic solubilisation in aqueous P407+P188 mixtures; assay type: physicochemical
# Experimental: The maximum additive concentration (MAC) and degree of synergistic solubilisation was determined for a selection of water insoluble and sparingly soluble actives in aqueous P407+P188 mixtures.
# For each active, the MAC was determined in the following aqueous poloxamer solutions:
# As an aid to evaluating the level of synergistic solubilisation present within the system, the experimental data given in FIGS. 1-3 also includes the calculated MAC's of the systems that would be expected if the poloxamers comprising the mixture were solubilising independently and the overall MAC were simply the sum of the individual MAC's for the two components or admixture.
# [3] = 3% w/v P407 + 7% w/v P188 in water
# [4] = 7% w/v P407 + 3% w/v P188 in water
smiles,measurement,setting,value
CN1C(=O)CN=C(c2ccccc2)c2cc(Cl)ccc21 [diazepam],incidence of pain on injection,[1]; formulated in a mixture of propylene glycol and water,37%
same,incidence of pain on injection,[1]; formulated in an emulsion form,0%
"CCN(CC)CC(=O)Nc1c(C)cccc1C [Lidocaine, 2-diethylamino-2′,6′-acetoxylidide]","synergistic ratio, MACexperimental/MACadmixture",[2]; [3],1.5
same,"synergistic ratio, MACexperimental/MACadmixture",[2]; [4],1.4
"Cc1ccc(C(C)C)cc1O [Carvacrol, 2-methyl-5-(1-methylethyl)phenol]","synergistic ratio, MACexperimental/MACadmixture",[2]; [3],2.1
same,"synergistic ratio, MACexperimental/MACadmixture",[2]; [4],1.8
"CCCCCCCCCC(=O)OCCN1CCN(CCCN2c3ccccc3Sc3ccc(C(F)(F)F)cc32)CC1 [Fluphenazine decanoate, 2-{4-[3-(2-trifluoromethyl-phenothiazin-10-yl)propyl]piperazin-1-yl}ethyl decanoate]","synergistic ratio, MACexperimental/MACadmixture",[2]; [3],3.6
same,"synergistic ratio, MACexperimental/MACadmixture",[2]; [4],1.6
"CCCCCCC(=O)OCCN1CCN(CCCN2c3ccccc3Sc3ccc(C(F)(F)F)cc32)CC1 [Fluphenazine enanthate, 2-{4-[3-(2-trifluoromethylphenothiazin-10-yl)propyl]piperazin-1-yl}ethyl heptanoate]","synergistic ratio, MACexperimental/MACadmixture",[2]; [3],2.5
same,"synergistic ratio, MACexperimental/MACadmixture",[2]; [4],1.8
